A word on the EC50: it is the concentration needed to bring the measured effect to its halfway point.

Chain of human APJ receptor (P35414 whole entry): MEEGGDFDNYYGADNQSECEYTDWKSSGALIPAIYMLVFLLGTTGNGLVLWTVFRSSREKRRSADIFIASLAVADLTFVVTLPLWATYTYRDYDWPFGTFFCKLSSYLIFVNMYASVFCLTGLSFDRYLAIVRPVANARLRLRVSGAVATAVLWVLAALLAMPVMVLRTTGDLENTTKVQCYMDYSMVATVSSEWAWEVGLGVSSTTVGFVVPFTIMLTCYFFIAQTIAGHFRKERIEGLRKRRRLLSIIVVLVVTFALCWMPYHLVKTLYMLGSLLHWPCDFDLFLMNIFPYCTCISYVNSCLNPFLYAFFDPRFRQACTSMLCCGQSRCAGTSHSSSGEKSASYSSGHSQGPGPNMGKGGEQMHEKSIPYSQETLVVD

The assay addresses human APJ receptor (Homo sapiens (Human), UniProt P35414). The assay can be described thus: [35S]GTPγS binding assay on membranes from CHO cells stably expressing human APJ receptor. The format is biochemical. Particulars: read-out: Activity hAPJ SPA EC50 IP. Put shortly: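 Membranes from CHO cells stably expressing human APJ incubated with ligand, 0.2 nM [35S]GTPγS and WGA SPA beads in HEPES pH 7.5 with 5 mM MgCl2, 200 mM NaCl, 3 μM GDP, 90 min at RT. Nonspecific binding defined with 100 μM GTPγS; EC50 by non-linear regression.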
A general note: GTPγS resists hydrolysis and so accumulates on activated G proteins.
Regarding “(1R,2S)-N-(4-(4,6-dimethoxypyrimidin-5-yl)-5-((S)-tetrahydrofuran-2-yl)-4H-1,2,4-triazol-3-yl)-1-methoxy-1-(5-methylpyrazin-2-yl)propane-2-sulfonamide or (1R,2S)-N-(4-(4,6-dimethoxypyrimidin-5-yl)-5-((R)-tetrahydrofuran-2-yl)-4H-1,2,4-triazol-3-yl)-1-methoxy-1-(5-methylpyrazin-2-yl)propane-2-sulfonamide [Example 186.0]”, the EC50 was determined as 0.08 µM.

As for “(1R,2S)-N-(4-([1,1′-bi(cyclopropyl)]-1-yl)-5-((2R)-1,4-dioxan-2-yl)-4H-1,2,4-triazol-3-yl)-1-methoxy-1-(5-methyl-2-pyrazinyl)-2-propanesulfonamide or (1R,2S)-N-(4-([1,1′-bi(cyclopropyl)]-1-yl)-5-((2S)-1,4-dioxan-2-yl)-4H-1,2,4-triazol-3-yl)-1-methoxy-1-(5-methyl-2-pyrazinyl)-2-propanesulfonamide [Example 328.0]”, the EC50 came to 0.23 µM.

For the substance “(1R,2S)-N-(4-([1,1′-bi(cyclopropyl)]-1-yl)-5-((2R)-1,4-dioxan-2-yl)-4H-1,2,4-triazol-3-yl)-1-methoxy-1-(5-methyl-2-pyrazinyl)-2-propanesulfonamide or (1R,2S)-N-(4-([1,1′-bi(cyclopropyl)]-1-yl)-5-((2S)-1,4-dioxan-2-yl)-4H-1,2,4-triazol-3-yl)-1-methoxy-1-(5-methyl-2-pyrazinyl)-2-propanesulfonamide [Example 329.0]”, the EC50 stood at 1.3 µM.

Regarding “(1R,2S)-N-(4-([1,1′-bi(cyclopropyl)]-1-yl)-5-((2S)-1,4-dioxan-2-yl)-4H-1,2,4-triazol-3-yl)-1-(5-chloro-2-pyrimidinyl)-1-methoxy-2-propanesulfonamide or (1R,2S)-N-(4-([1,1′-bi(cyclopropyl)]-1-yl)-5-((2R)-1,4-dioxan-2-yl)-4H-1,2,4-triazol-3-yl)-1-(5-chloro-2-pyrimidinyl)-1-methoxy-2-propanesulfonamide [Example 325.0]”, the EC50 is 0.014 µM.

As to “(1R,2S)-N-(4-([1,1′-bi(cyclopropyl)]-1-yl)-5-((2S)-1,4-dioxan-2-yl)-4H-1,2,4-triazol-3-yl)-1-(5-chloro-2-pyrimidinyl)-1-methoxy-2-propanesulfonamide or (1R,2S)-N-(4-([1,1′-bi(cyclopropyl)]-1-yl)-5-((2R)-1,4-dioxan-2-yl)-4H-1,2,4-triazol-3-yl)-1-(5-chloro-2-pyrimidinyl)-1-methoxy-2-propanesulfonamide [Example 326.0]”, the EC50 stood at 1.7 µM.

For the substance “(1R,2S)-N-(5-((R)-1,4-dioxan-2-yl)-4-(1-(pyridin-3-yl)cyclopropyl)-4H-1,2,4-triazol-3-yl)-1-(5-chloropyrimidin-2-yl)-1-methoxypropane-2-sulfonamide or (1R,2S)-N-(5-((S)-1,4-dioxan-2-yl)-4-(1-(pyridin-3-yl)cyclopropyl)-4H-1,2,4-triazol-3-yl)-1-(5-chloropyrimidin-2-yl)-1-methoxypropane-2-sulfonamide [Example 295.0]”, the EC50 stood at 0.016 µM.

As to “(1R,2S)-N-(5-((R)-1,4-dioxan-2-yl)-4-(1-(pyridin-3-yl)cyclopropyl)-4H-1,2,4-triazol-3-yl)-1-(5-chloropyrimidin-2-yl)-1-methoxypropane-2-sulfonamide or (1R,2S)-N-(5-((S)-1,4-dioxan-2-yl)-4-(1-(pyridin-3-yl)cyclopropyl)-4H-1,2,4-triazol-3-yl)-1-(5-chloropyrimidin-2-yl)-1-methoxypropane-2-sulfonamide [Example 296.0]”, the EC50 turned out to be 0.17 µM.

Regarding “(1R,2S)-N-(5-((R)-2,3-dihydrobenzofuran-2-yl)-4-(4,6-dimethoxypyrimidin-5-yl)-4H-1,2,4-triazol-3-yl)-1-methoxy-1-(5-methylpyrimidin-2-yl)propane-2-sulfonamide or (1R,2S)-N-(5-((S)-2,3-dihydrobenzofuran-2-yl)-4-(4,6-dimethoxypyrimidin-5-yl)-4H-1,2,4-triazol-3-yl)-1-methoxy-1-(5-methylpyrimidin-2-yl)propane-2-sulfonamide [Example 233.0]”, the EC50 was found to be 1.27 µM.

As to “(1R,2S)-N-(5-((R)-2,3-dihydrobenzofuran-3-yl)-4-(2,6-dimethoxyphenyl)-4H-1,2,4-triazol-3-yl)-1-methoxy-1-(5-methylpyrimidin-2-yl)propane-2-sulfonamide or (1R,2S)-N-(5-((S)-2,3-dihydrobenzofuran-3-yl)-4-(2,6-dimethoxyphenyl)-4H-1,2,4-triazol-3-yl)-1-methoxy-1-(5-methylpyrimidin-2-yl)propane-2-sulfonamide [Example 238.0]”, the EC50 was 0.81 µM.

As for “(1R,2S)-N-(5-((R)-2,3-dihydrobenzofuran-3-yl)-4-(2,6-dimethoxyphenyl)-4H-1,2,4-triazol-3-yl)-1-methoxy-1-(5-methylpyrimidin-2-yl)propane-2-sulfonamide or (1R,2S)-N-(5-((S)-2,3-dihydrobenzofuran-3-yl)-4-(2,6-dimethoxyphenyl)-4H-1,2,4-triazol-3-yl)-1-methoxy-1-(5-methylpyrimidin-2-yl)propane-2-sulfonamide [Example 239.0]”, the EC50 was 0.033 µM.

Consider “(1R,2S)-N-(5-((S)-1,4-dioxan-2-yl)-4-(1-(methoxymethyl)cyclopropyl)-4H-1,2,4-triazol-3-yl)-1-(5-chloropyrimidin-2-yl)-1-methoxypropane-2-sulfonamide or (1R,2S)-N-(5-((R)-1,4-dioxan-2-yl)-4-(1-(methoxymethyl)cyclopropyl)-4H-1,2,4-triazol-3-yl)-1-(5-chloropyrimidin-2-yl)-1-methoxypropane-2-sulfonamide [Example 341.0]”, for which the EC50 was 1.21 µM.

For “(1S,2S)-1-(5-chloro-2-pyrimidinyl)-N-(4-(1,3-dimethoxy-2-propanyl)-5-((2R,5R)-5-methyltetrahydro-2-furanyl)-4H-1,2,4-triazol-3-yl)-1-(2-propanyloxy)-2-propanesulfonamide or (1S,2S)-1-(5-chloro-2-pyrimidinyl)-N-(4-(1,3-dimethoxy-2-propanyl)-5-((2S,5S)-5-methyltetrahydro-2-furanyl)-4H-1,2,4-triazol-3-yl)-1-(2-propanyloxy)-2-propanesulfonamide [Example 354.0]”, the EC50 amounted to 0.092 µM.

Consider “(1S,2S)-1-(5-chloro-2-pyrimidinyl)-N-(4-(1,3-dimethoxy-2-propanyl)-5-((2R,5R)-5-methyltetrahydro-2-furanyl)-4H-1,2,4-triazol-3-yl)-1-(2-propanyloxy)-2-propanesulfonamide or (1S,2S)-1-(5-chloro-2-pyrimidinyl)-N-(4-(1,3-dimethoxy-2-propanyl)-5-((2S,5S)-5-methyltetrahydro-2-furanyl)-4H-1,2,4-triazol-3-yl)-1-(2-propanyloxy)-2-propanesulfonamide [Example 355.0]”, for which the EC50 was determined as 0.0012 µM.

Consider “(1S,2S)-1-(5-chloro-2-pyrimidinyl)-N-(4-cyclopropyl-5-((2S,5S)-5-methyltetrahydro-2-furanyl)-4H-1,2,4-triazol-3-yl)-1-(2-propanyloxy)-2-propanesulfonamide or (1S,2S)-1-(5-chloro-2-pyrimidinyl)-N-(4-cyclopropyl-5-((2R,5R)-5-methyltetrahydro-2-furanyl)-4H-1,2,4-triazol-3-yl)-1-(2-propanyloxy)-2-propanesulfonamide [Example 352.0]”, for which the EC50 was 1.49 µM.

“(1S,2S)-1-(5-chloro-2-pyrimidinyl)-N-(4-cyclopropyl-5-((2S,5S)-5-methyltetrahydro-2-furanyl)-4H-1,2,4-triazol-3-yl)-1-(2-propanyloxy)-2-propanesulfonamide or (1S,2S)-1-(5-chloro-2-pyrimidinyl)-N-(4-cyclopropyl-5-((2R,5R)-5-methyltetrahydro-2-furanyl)-4H-1,2,4-triazol-3-yl)-1-(2-propanyloxy)-2-propanesulfonamide [Example 353.0]”: the EC50 was found to be 0.1 µM.

For “(1S,2S)-1-(5-chloropyrimidin-2-yl)-1-isopropoxy-N-(4-(1-(methoxymethyl)cyclopropyl)-5-((R)-tetrahydrofuran-3-yl)-4H-1,2,4-triazol-3-yl)propane-2-sulfonamide or (1S,2S)-1-(5-chloropyrimidin-2-yl)-1-isopropoxy-N-(4-(1-(methoxymethyl)cyclopropyl)-5-((S)-tetrahydrofuran-3-yl)-4H-1,2,4-triazol-3-yl)propane-2-sulfonamide [Example 319.0]”, the EC50 was 0.13 µM.

For the substance “(1S,2S)-1-(5-chloropyrimidin-2-yl)-1-isopropoxy-N-(4-(1-(methoxymethyl)cyclopropyl)-5-((R)-tetrahydrofuran-3-yl)-4H-1,2,4-triazol-3-yl)propane-2-sulfonamide or (1S,2S)-1-(5-chloropyrimidin-2-yl)-1-isopropoxy-N-(4-(1-(methoxymethyl)cyclopropyl)-5-((S)-tetrahydrofuran-3-yl)-4H-1,2,4-triazol-3-yl)propane-2-sulfonamide [Example 320.0]”, the EC50 was determined as 0.045 µM.

For the substance “(1S,2S)-1-isopropoxy-1-(5-methylpyrazin-2-yl)-N-(4-(tetrahydro-2H-pyran-4-yl)-5-((R)-tetrahydrofuran-2-yl)-4H-1,2,4-triazol-3-yl)propane-2-sulfonamide or (1S,2S)-1-isopropoxy-1-(5-methylpyrazin-2-yl)-N-(4-(tetrahydro-2H-pyran-4-yl)-5-((S)-tetrahydrofuran-2-yl)-4H-1,2,4-triazol-3-yl)propane-2-sulfonamide [Example 260.0]”, the EC50 is above 4.2 µM.

“(1S,2S)-1-isopropoxy-1-(5-methylpyrazin-2-yl)-N-(4-(tetrahydro-2H-pyran-4-yl)-5-((R)-tetrahydrofuran-2-yl)-4H-1,2,4-triazol-3-yl)propane-2-sulfonamide or (1S,2S)-1-isopropoxy-1-(5-methylpyrazin-2-yl)-N-(4-(tetrahydro-2H-pyran-4-yl)-5-((S)-tetrahydrofuran-2-yl)-4H-1,2,4-triazol-3-yl)propane-2-sulfonamide [Example 261.0]”: the EC50 came to 0.15 µM.

Values taken from patent publication US10150760B2, “Compounds for use in preparing heterocyclic triazole agonists of the APJ receptor” (AMGEN INC., priority 2016, dated 2018).
